Laboratory results: patent publication US20260274894A1, “CYCLIC POLYPEPTIDE COMPOUND AND USE THEREOF” (BIVISION PHARMACEUTICALS, INC., priority 2023, published 2026)
Numbered stars: 1 amine (or outer) side, 2 acyl side, 3 side chain; on linkers, the order of the positions; unused ones are H or OH. Bridge positions count the residues as written; N and C are the ends. Square brackets hold non-standard residues; d marks the D form. Side chains are listed from the residue outwards. Peptide text beside a SMILES is read from it. * marks the point of attachment. ξ: configuration not given here. Acetyl(4-DOTA-piperazinyl) = O=C(O)CN1CCN(CC(=O)O)CCN(CC(=O)N2CCN(CC(=O)*)CC2)CCN(CC(=O)O)CC1; X2 = O=C(O)CN1CCN(CC(=O)O)CCN(CC(=O)N2CCN(CCCN*)CC2)CCN(CC(=O)O)CC1; X1 = O=C(O)CN1CCN(CC(=O)O)CCN(CC(=O)CCCN*)CCN(CC(=O)O)CC1; DOTA = O=C(O)CN1CCN(CC(=O)O)CCN(CC(=O)*)CCN(CC(=O)O)CC1; Azetidine3carboxylic = O=C(C1CN([*:1])C1)[*:2]; mXylylene = c1cc(C[*:1])cc(C[*:2])c1; Cha = N[C@@H](CC1CCCCC1)C(=O)O; Dab = NCC[C@H](N)C(=O)O; Dap = NC[C@H](N)C(=O)O; Aoc = NCCCCCCCC(=O)O; CO = O=C([*:1])[*:2]; ξP = O=C(O)C1CCCN1; ξC = NC(CS)C(=O)O; NHBu = CCCCN*

Columns and labels:
FAP protein = biological target: T1, FAP protein (Homo sapiens, UniProt Q12884); experiment: Biacore test of compound affinity to FAP protein; conditions: Biacore 8K, SA chip, 15° C., 1:1 binding model; read-out: pKD (FAP) (converted)
T1 construct: purchased Sinobiological
T1 sequence (Q12884 1-760): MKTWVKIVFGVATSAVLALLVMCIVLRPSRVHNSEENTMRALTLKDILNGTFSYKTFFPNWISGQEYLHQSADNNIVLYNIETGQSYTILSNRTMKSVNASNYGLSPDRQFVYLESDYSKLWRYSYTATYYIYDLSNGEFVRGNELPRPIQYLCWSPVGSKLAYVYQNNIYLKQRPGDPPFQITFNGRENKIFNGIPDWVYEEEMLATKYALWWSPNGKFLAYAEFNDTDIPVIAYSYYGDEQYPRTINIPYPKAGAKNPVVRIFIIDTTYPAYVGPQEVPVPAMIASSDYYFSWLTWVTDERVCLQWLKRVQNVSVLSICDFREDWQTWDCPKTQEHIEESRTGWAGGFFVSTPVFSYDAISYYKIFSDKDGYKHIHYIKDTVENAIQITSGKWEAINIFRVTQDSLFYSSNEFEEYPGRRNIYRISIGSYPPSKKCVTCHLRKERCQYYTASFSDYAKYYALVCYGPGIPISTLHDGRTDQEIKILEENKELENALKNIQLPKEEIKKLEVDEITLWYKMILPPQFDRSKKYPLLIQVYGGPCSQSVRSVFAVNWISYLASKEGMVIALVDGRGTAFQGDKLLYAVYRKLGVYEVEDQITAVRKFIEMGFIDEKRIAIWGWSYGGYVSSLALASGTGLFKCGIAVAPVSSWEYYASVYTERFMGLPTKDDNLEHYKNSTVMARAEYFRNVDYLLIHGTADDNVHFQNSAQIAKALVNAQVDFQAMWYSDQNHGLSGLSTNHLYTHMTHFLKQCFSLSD
Procedure, shortened: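 FAP captured on an SA chip; compounds run as analyte in single-cycle kinetics at 15° C (90 s contact, 1800 s dissociation, 30 μL/min), reference-subtracted (2-1). Sensorgrams fitted to a 1:1 binding model to give KD, reported as pKD = −log KD.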

[1] = biological target: T2, fibroblast activation protein (FAP) (Homo sapiens, UniProt Q12884); experiment: Protease inhibition (selectivity) assay, FAP, Z-Gly-Pro-AMC substrate; assay type: biochemical; conditions: recombinant human FAP 1.2 nM
T2 sequence (Q12884 1-760): T1 sequence (Q12884 1-760)
Method: (§1) The specificity of the synthesized compounds for recombinant human dipeptidyl peptidase IV (DPPIV), fibroblast activation protein (FAP), or prolyl oligopeptidase (PREP) was expressed by their half-maximal inhibitory concentration (IC50) against the proteases. […] No. I-1145.0050BA) in DMSO; DPPIV: 100 mM Gly-Pro-AMC (VWR, Cat. No. 100042-646) in DMSO), and the stock solution of the substrate was subsequently diluted 20-fold using the corresponding buffer described above. • 4) The enzyme was diluted into an appropriate assay buffer. […] Column 1 (A, B, C) was prepared using 200 μL of an appropriate analysis buffer as a control. Column 1 (D, E, F, G, H) was prepared with 20 μL of an appropriate assay buffer and 180 μL of the enzyme as the inhibitor-free control. • 5) Where appropriate, 20 μL of the test compound was added from the dilution plate prepared in step 2 to columns 2-10 of the assay plate. Each sample should be tested in triplicate. It was incubated at room temperature for 10 minutes, with the plate being shaken for the first two minutes. • 6) 10 μL of the 20× substrate prepared in step 3 was added to each well and incubated at room temperature for 15 minutes, with the plate being shaken for the first two minutes. • 7) Fluorescence was read at λex:380 and λem:460.

[2] = biological target: dipeptidyl peptidase IV (DPPIV) (Homo sapiens, UniProt P27487); experiment: Protease inhibition (selectivity) assay, DPPIV, Gly-Pro-AMC substrate; assay type: biochemical; conditions: recombinant human DPPIV 0.1 nM; read-out: pIC50 (DPPIV) (converted)
dipeptidyl peptidase IV (DPPIV), sequence (P27487 whole entry): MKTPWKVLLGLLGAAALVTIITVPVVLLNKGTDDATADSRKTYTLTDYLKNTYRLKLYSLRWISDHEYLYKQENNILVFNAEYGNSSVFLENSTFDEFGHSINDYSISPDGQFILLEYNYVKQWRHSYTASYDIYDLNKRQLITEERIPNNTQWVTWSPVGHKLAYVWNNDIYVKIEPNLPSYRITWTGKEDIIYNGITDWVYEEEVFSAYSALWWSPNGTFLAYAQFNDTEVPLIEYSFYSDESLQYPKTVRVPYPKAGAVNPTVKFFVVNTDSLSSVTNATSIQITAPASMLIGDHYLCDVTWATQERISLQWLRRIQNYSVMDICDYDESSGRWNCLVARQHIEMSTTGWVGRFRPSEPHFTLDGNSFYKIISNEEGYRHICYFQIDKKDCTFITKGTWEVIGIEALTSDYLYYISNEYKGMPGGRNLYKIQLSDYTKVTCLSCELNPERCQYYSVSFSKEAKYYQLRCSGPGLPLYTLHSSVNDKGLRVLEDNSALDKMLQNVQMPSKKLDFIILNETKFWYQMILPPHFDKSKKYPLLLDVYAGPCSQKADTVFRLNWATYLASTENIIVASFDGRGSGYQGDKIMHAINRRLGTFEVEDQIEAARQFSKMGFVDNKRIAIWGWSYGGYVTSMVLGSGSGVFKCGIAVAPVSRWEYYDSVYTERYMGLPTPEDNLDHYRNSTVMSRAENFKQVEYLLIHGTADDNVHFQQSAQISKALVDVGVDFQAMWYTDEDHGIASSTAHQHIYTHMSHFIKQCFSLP
Method: as §1

[3] = biological target: T3, prolyl oligopeptidase (PREP) (Homo sapiens, UniProt P48147); experiment: Protease inhibition (selectivity) assay, PREP, Z-Gly-Pro-AMC substrate; assay type: biochemical; conditions: recombinant human PREP 0.6 nM
T3 sequence (P48147 1-710): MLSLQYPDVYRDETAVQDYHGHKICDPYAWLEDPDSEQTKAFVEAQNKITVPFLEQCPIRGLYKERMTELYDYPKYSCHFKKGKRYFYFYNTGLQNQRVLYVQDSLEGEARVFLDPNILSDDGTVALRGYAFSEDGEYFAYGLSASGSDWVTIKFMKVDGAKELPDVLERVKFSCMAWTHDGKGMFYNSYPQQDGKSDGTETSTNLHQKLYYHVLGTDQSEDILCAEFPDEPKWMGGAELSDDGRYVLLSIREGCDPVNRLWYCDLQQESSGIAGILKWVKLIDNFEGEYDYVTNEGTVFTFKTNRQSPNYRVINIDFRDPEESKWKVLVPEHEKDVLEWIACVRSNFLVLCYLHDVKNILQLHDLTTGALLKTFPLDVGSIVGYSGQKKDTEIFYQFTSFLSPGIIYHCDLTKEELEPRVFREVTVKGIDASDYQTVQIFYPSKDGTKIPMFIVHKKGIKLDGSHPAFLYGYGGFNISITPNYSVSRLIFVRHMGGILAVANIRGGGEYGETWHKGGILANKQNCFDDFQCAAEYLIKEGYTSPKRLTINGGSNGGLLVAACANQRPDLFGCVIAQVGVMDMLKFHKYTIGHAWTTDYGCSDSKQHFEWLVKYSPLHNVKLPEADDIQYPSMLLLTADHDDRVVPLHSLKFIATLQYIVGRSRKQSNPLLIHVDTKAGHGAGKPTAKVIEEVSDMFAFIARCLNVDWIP
Method: as §1

[4] = Animal body weight after injection of ^177Lu-labeled compound; conditions: Day 2
Method: 6- to 8-week-old (Balb/c Nude) mice were subcutaneously inoculated on the right scapula with 2×10^6 cells of HT1080 2 # (50% o Matrigel, Corning). When the tumors grew to the size as required by the assay, the animals were randomly assigned to 13 experimental groups based on tumor volume, with 5 animals per group. The body weight and tumor size were measured. On the day of grouping, administration was initiated for the control group (normal saline) and groups 1-12. General health and appearance were observed daily after the experiment began. Body weight and tumor size were measured prior to each sample collection time point. Any abnormal observations found during the entire study period were required to be recorded in the raw data.

SMILES | Kd (FAP protein) | IC50 [1] | IC50 [2] | IC50 [3] | Animal body weight [4]
CCCCCC(=O)N[C@H]1CSCc2cccc(c2)CSC[C@@H](C(=O)N[C@@H](CCC(=O)NCCNC(=O)CN2CCN(CC(=O)O)CCN(CC(=O)O)CCN(CC(=O)O)CC2)C(=O)O)NC(=O)[C@H](Cc2ccccc2)NC(=O)[C@H](CCC(N)=O)NC(=O)[C@H]([C@@H](C)O)NC(=O)[C@@H]2CCCN2C(=O)C2CN(C2)C1=O [JHDC23, Hex[Cys(3MeBn)-hhy39-Pro-Thr-Gln-Phe-Cys]-Glu-(EDA-DOTA)-OH] | 10 to 100 nM | < 10 nM | > 1000 nM | > 1000 nM | –
CCCCNC(=O)N[C@H]1CSCc2cccc(c2)CSC[C@@H](C(=O)N[C@@H](CCC(=O)NCCCC(=O)CN2CCN(CC(=O)O)CCN(CC(=O)O)CCN(CC(=O)O)CC2)C(=O)O)NC(=O)[C@H](Cc2ccccc2)NC(=O)[C@H](CCC(N)=O)NC(=O)[C@H]([C@@H](C)O)NC(=O)[C@@H]2CCCN2C(=O)C2CN(C2)C1=O [JHDC24, nBu-urea-[Cys(3MeBn)-hhy39-Pro-Thr-Gln-Phe-Cys]-Glu-(EDA-DOTA)-OH] ({NHBu-CO}-C[Azetidine3carboxylic]PTQFCE(X1)-OH; linker 1-7 via mXylylene) | 10 to 100 nM | < 10 nM | > 1000 nM | > 1000 nM | –
CCCCNC(=O)N[C@H]1CSCc2cccc(c2)CSCC(C(=O)N[C@@H](CNC(=O)CN2CCN(C(=O)CN3CCN(CC(=O)O)CCN(CC(=O)O)CCN(CC(=O)O)CC3)CC2)C(=O)O)NC(=O)[C@H](CC2CCCCC2)NC(=O)[C@H](CCC(N)=O)NC(=O)[C@H]([C@@H](C)O)NC(=O)C2CCCN2C(=O)C2CN(C2)C1=O (stereo partly drawn) [JHDC47, nBu-urea-[Cys(3MeBn)-hhy39-Pro-Thr-Gln-hhy34-Cys]-DAPA-(Ac-piperazine-DOTA)-OH] ({NHBu-CO}-C[Azetidine3carboxylic][ξP]TQ[Cha][ξC][Dap](Acetyl(4-DOTA-piperazinyl))-OH; linker 1-7 via mXylylene) | < 10 nM | < 10 nM | > 1000 nM | > 1000 nM | –
CCCCNC(=O)N[C@H]1CSCc2cccc(c2)CSC[C@@H](C(=O)N[C@@H](CCC(=O)NCCCN2CCN(C(=O)CN3CCN(CC(=O)O)CCN(CC(=O)O)CCN(CC(=O)O)CC3)CC2)C(=O)O)NC(=O)[C@H](Cc2ccccc2)NC(=O)[C@H](CCC(N)=O)NC(=O)[C@H]([C@@H](C)O)NC(=O)C2CCCN2C(=O)C2CN(C2)C1=O (stereo partly drawn) [JHDC48, nBu-urea-[Cys(3MeBn)-hhy39-Pro-Thr-Gln-Phe-Cys]-Glu-(aminopropylpiperazine-DOTA)-OH] ({NHBu-CO}-C[Azetidine3carboxylic][ξP]TQFCE(X2)-OH; linker 1-7 via mXylylene) | 10 to 100 nM | < 10 nM | > 1000 nM | > 1000 nM | –
CCCCNC(=O)N[C@H]1CSCc2cccc(c2)CSCC(C(=O)N[C@@H](CCNC(=O)CCCCCCCNC(=O)CN2CCN(CC(=O)O)CCN(CC(=O)O)CCN(CC(=O)O)CC2)C(=O)O)NC(=O)[C@H](CC2CCCCC2)NC(=O)[C@H](CCC(N)=O)NC(=O)[C@H]([C@@H](C)O)NC(=O)C2CCCN2C(=O)C2CN(C2)C1=O (stereo partly drawn) [JHDC53, nBu-urea-[Cys(3MeBn)-hhy39-Pro-Thr-Gln-hhy34-Cys]-DABA-(AOA-DOTA)-OH] ({NHBu-CO}-C[Azetidine3carboxylic][ξP]TQ[Cha][ξC][Dab]([Aoc-DOTA])-OH; linker 1-7 via mXylylene) | 10 to 100 nM | < 10 nM | > 1000 nM | > 1000 nM | –
CCCCNC(=O)N[C@H]1CSCc2cccc(c2)CSCC(C(=O)N[C@@H](CCNC(=O)CNC(=O)CN2CCN(CC(=O)O)CCN(CC(=O)O)CCN(CC(=O)O)CC2)C(=O)O)NC(=O)[C@H](CC2CCCCC2)NC(=O)[C@H](CCC(N)=O)NC(=O)[C@H]([C@@H](C)O)NC(=O)[C@@H]2CCCN2C(=O)C2CN(C2)C1=O (stereo partly drawn) [JHDC56, nBu-urea-[Cys(3MeBn)-hhy39-Pro-Thr-Gln-hhy34-Cys]-DABA-(Gly-DOTA)-OH] | < 10 nM | < 10 nM | > 1000 nM | > 1000 nM | –
CCCCNC(=O)N[C@H]1CSCc2cccc(c2)CSCC(C(=O)N[C@@H](CNC(=O)CN2CCN(C(=O)CN3CCN(CC(=O)O)CCN(CC(=O)O)CCN(CC(=O)O)CC3)CC2)C(=O)O)NC(=O)[C@H](CC2CCCCC2)NC(=O)[C@H](CCC(N)=O)NC(=O)[C@H]([C@@H](C)O)NC(=O)C2CCCN2C(=O)C2CN(C2)C1=O (stereo partly shown) [^177Lu-JHDC47, metal not drawn] ({NHBu-CO}-C[Azetidine3carboxylic][ξP]TQ[Cha][ξC][Dap](Acetyl(4-DOTA-piperazinyl))-OH; linker 1-7 via mXylylene) | – | – | – | – | 16.00 ± 0.54 g
